Measurements published in article PMC11650361 (Archiv Der Pharmazie, 2024).
Like-named read-outs stand apart in the source and are kept apart here.

Legend:
porcine liver CES = test: In vitro CES inhibition (4-NPA substrate); type: biochemical; details: % inhibition at 20 μM; n.a. = not active
Method: The esterase profile of the synthesized conjugates was determined. This included an assessment of their inhibition of cholinergic targets AChE and BChE along with a structurally related enzyme CES (EC 3.1.1.1), which hydrolyzes numerous ester‐containing drugs and is considered as an off‐target for anti‐AD agents.^[ [9], [40] ^] Human erythrocyte AChE, equine serum BChE, and porcine liver CES were used.^[ [40], [41], [42] ^]
Initially, we used a single concentration of 20 µM for all compounds.
^a All experiments were carried out in accordance with the standard protocols approved by IPAС RAS. Human erythrocyte AChE, equine serum BChE were purchased from Milamed (Perm, Russia). Porcine liver CES, substrates, and reference compounds were from Sigma-Aldrich (St. Louis, MO, USA). The activity of enzymes was measured spectrophotometrically, as described in detail in ^[1] using ATCh iodide, BTCh iodide, and 4-NPA as substrates for AChE, BChE, and CES, respectively. Experimental conditions: K,Na-phosphate buffer (100 mM), 25 °С, pH 7.5 for AChE and BChE and pH 8.0 for CES assay. Measurements were carried out on a FLUOStar Optima microplate reader (BMG Labtech, Ortenberg, Germany). Test compounds were dissolved in DMSO; final concentration of solvent in the incubation mixture was 2% (v/v).

β‐amyloid (1–42) (Aβ42) = β‐amyloid (1–42) (Aβ42) (Homo sapiens, UniProt P05067); test: Inhibition of Aβ42 self-aggregation (thioflavin T fluorescence); type: biochemical; details: for inhibition at 100 µM: read-out: Inhibition of Aβ42 self‐aggregation, %
Chain of β‐amyloid (1–42) (Aβ42) (P05067 672-713 limits assumed): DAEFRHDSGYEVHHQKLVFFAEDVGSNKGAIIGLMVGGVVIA
Method: Inhibition of Aβ42 self‐aggregation by test compounds was studied using the ThT fluorescence method^[ [67], [68] ^] with minor modifications as described in detail in Makhaeva et al.^[ [16] ^] Lyophilized hexamfluoroisopropanol‐pretreated Aβ42 (GenicBio Limited, 1 mg) was dissolved in DMSO to obtain a stable 500 μM solution. […] Myricetin and propidium iodide in the same concentration were used as references. […] Each assay was run in triplicate.
^c The inhibitory effect of the test compounds toward Aβ42 self-aggregation was determined using the thioflavin T (ThT) fluorescence method ^[5-7] with minor modifications as described in detail in ^[8]. Lyophilized HFIP-pretreated Aβ42 from BACHEM (Bubendorf, Switzerland) was used. […] Myricetin and propidium iodide were used as reference compounds (positive controls). Analyses were performed with a FLUOStar Optima microplate reader (LabTech, Ortenberg, Germany). The inhibition (%) of Aβ42 self-aggregation by the test compounds was calculated by the following equation: […]
where IFi and IFo are the fluorescence intensities obtained for Aβ42 in the presence and in the absence of inhibitor, respectively, after subtracting the fluorescence of respective blanks.

equine serum BChE = target: T1, equine serum BChE (Equus caballus, UniProt P81908); test: biochemical; details: for IC50: equine serum BChE, mean ± SEM, n = 3
T1 construct: purchased Sigma-Aldrich; Milamed, Perm, Russia (supplement); host or cells: horse serum
T1 sequence (P81908 whole entry): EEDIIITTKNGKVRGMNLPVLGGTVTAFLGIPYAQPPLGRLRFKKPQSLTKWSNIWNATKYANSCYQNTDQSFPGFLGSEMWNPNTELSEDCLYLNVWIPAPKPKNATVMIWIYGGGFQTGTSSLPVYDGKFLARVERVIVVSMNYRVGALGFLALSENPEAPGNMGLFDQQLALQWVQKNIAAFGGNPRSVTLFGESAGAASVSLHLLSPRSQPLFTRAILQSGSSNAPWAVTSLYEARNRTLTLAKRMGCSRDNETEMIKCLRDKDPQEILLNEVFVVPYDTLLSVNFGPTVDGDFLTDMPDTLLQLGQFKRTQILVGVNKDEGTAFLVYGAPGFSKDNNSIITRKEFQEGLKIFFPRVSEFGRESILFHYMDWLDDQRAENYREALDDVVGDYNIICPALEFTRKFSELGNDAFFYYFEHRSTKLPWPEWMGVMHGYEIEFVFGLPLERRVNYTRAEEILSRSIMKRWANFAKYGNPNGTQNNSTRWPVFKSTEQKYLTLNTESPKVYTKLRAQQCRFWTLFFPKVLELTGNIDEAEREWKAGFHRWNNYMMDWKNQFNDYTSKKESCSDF

[1] = target: T2, PAS of Electrophorus electricus AChE (EeAChE) (Electrophorus electricus, UniProt O42275); type: binding; details: 20 µM compound concentration
T2 construct: purchased Sigma-Aldrich type VI-S; host or cells: electric eel tissue
T2 sequence (O42275 24-633): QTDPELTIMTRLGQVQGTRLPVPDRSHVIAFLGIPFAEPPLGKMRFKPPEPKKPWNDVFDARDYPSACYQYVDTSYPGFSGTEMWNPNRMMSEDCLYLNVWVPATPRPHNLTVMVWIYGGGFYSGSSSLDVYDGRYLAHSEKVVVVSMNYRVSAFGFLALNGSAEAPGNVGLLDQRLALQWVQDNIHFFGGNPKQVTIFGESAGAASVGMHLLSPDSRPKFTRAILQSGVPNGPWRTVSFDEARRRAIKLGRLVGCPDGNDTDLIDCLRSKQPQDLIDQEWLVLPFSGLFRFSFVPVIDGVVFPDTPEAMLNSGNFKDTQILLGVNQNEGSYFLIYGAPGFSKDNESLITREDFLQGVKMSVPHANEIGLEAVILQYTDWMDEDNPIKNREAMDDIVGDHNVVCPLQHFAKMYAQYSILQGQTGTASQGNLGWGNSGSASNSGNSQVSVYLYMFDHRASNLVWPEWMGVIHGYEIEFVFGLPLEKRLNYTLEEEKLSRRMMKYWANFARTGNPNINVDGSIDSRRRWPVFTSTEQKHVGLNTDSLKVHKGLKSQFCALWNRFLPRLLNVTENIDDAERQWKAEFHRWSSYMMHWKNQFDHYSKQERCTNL
Method: The ability of the test compounds to competitively displace propidium was evaluated by the fluorescence method,^[ [65] ^] as described in detail in Makhaeva et al.^[ [66] ^] […] After 15 min of incubation of the test compounds at a concentration of 20 μM with a 7 μM solution of EeAChE in 1 mM Tris‐HCl buffer, pH 8.0, 25°C, propidium iodide (final concentration 8 μM) was added. Then, the solutions were incubated for 15 min and the fluorescence spectrum was recorded (530 nm (excitation) and 600 nm (emission)). […] Measurements were performed in triplicate on a FLUOStar Optima microplate reader (BMG LabTech).
The 7 μM EeAChE was incubated with the test compound at a concentration of 20 μM in 1 mM Tris-HCl buffer pH 8.0, 25 °C, for 15 min. After that, propidium iodide was added at final concentration of 8 μM. The samples were incubated for 15 min and the fluorescence spectrum (530 nm (excitation) and 600 nm (emission)) was taken. […] The measurements were carried out in triplicate on a FLUOStar Optima microplate reader. The degree of propidium displacement (% displacement) from the PAS of EeAChE was calculated by formula (1):
% Displacement = 100 – (IFAChE+ Propidium + inhibitor / IFAChE + Propidium) × 100 (1),
where IFAChE + Propidium is the fluorescence intensity of the propidium associated with AChE in the absence of the test compound (taken as 100%), and IFAChE + Propidium + inhibitor is the fluorescence intensity of the propidium associated with AChE in the presence of the test compound.

human erythrocyte AChE = target: T3, human erythrocyte AChE (Homo sapiens, UniProt P22303); test: biochemical; type: biochemical; details: for IC50: human erythrocyte AChE, mean ± SEM, n = 3
T3 construct: purchased Sigma-Aldrich; Milamed, Perm, Russia (supplement); host or cells: human erythrocytes
T3 sequence (P22303 32-617 isoform P22303-2 limits assumed): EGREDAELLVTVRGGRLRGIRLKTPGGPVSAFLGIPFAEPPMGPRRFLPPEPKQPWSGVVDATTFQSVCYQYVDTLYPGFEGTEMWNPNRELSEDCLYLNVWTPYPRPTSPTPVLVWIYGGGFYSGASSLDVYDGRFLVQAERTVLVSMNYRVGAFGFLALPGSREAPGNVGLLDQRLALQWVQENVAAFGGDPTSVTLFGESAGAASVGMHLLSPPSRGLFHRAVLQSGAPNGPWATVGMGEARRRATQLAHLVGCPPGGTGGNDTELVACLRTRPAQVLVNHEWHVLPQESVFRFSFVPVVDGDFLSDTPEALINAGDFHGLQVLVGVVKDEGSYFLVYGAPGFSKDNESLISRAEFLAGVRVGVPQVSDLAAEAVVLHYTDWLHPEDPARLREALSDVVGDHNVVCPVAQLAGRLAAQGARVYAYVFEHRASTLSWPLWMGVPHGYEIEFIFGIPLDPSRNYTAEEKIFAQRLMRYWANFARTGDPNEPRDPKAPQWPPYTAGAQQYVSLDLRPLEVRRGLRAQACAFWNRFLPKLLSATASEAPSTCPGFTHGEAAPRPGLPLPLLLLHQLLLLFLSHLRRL

[2] = tested on: HEK293T (human embryonic kidney) cells; test: Cytotoxicity, MTT assay, HEK293T; type: cell-based; details: HEK-293T, MTT, 24 h, mean ± SEM, n = 3, read-out: HEK293T IC50
[3] = tested on: HepG2 cells (human hepatocellular carcinoma); test: Cytotoxicity, MTT assay, HepG2; type: cell-based; details: HepG2, MTT, 24 h, mean ± SEM, n = 3, read-out: Hep G2 IC50
[4] = ABTS radical cation scavenging activity assay; details: for IC50: concentration reducing ABTS radical by 50%, 1 h; for ABTS^•+‐scavenging activity, TEAC: relative to Trolox, 1 h incubation, n.a. = inactive
Method: Data are given for 1 h of incubation of compounds with ABTS^•+. The AOA of the compounds was evaluated as Trolox equivalent antioxidant capacity (TEAC values) as the ratio of the slopes of the concentration–response curves, test compound/Trolox. All tests were performed at least in triplicate in three independent experiments. The IC50 values for the test compounds were also determined.

[5] = tested on: SH‐SY5Y (human neuroblastoma) cells; test: Cytotoxicity, MTT assay, SH-SY5Y; type: cell-based; details: MTT, 24 h, mean ± SEM, n = 3, read-out: SH‐SY5Y IC50
eqBChE = target: T4, eqBChE (Equus caballus, UniProt P81908); test: Kinetic study of BChE inhibition, steady-state inhibition constants; type: biochemical; details: for αK i (noncompetitive inhibition constant), eqBChE / Ki: means ± SEM; for Ki: read-out: K i (competitive inhibition constant), eqBChE
T4 construct: purchased Sigma-Aldrich; Milamed, Perm, Russia (supplement); host or cells: horse serum
T4 sequence (P81908 whole entry): as the sequence (P81908 whole entry) above
Method: (§1) We assessed the mechanisms of AChE and BChE inhibition by performing a thorough analysis of enzyme kinetics. After a 5 min incubation at 25°C (for temperature equilibration) with three increasing concentrations of inhibitor and six decreasing substrate concentrations, the residual enzyme activity was measured as described above for enzymatic assays.

AChE = target: T5, AChE (Homo sapiens, UniProt P22303); test: Kinetic study of AChE inhibition, steady-state inhibition constants; type: biochemical; details: for αK i (noncompetitive inhibition constant), AChE / Ki: means ± SEM; for Ki: read-out: K i (competitive inhibition constant), AChE
T5 construct: purchased Sigma-Aldrich; Milamed, Perm, Russia (supplement); host or cells: human erythrocytes
T5 sequence (P22303 32-617 isoform P22303-2 limits assumed): as the sequence (P22303 32-617 isoform P22303-2 limits assumed) above
Method: as §1

Row | Structure (SMILES) | CES inhibition, % (porcine liver CES) | Propidium displacement, % [1] | Selectivity index IC50AChE/IC50BChE (equine serum BChE) | IC50 (equine serum BChE) [µM] | IC50 [4] [µM] | ABTS^•+‐scavenging activity, TEAC [4] | inhibition at 100 µM (β‐amyloid (1–42) (Aβ42); Aβ42 50 µM, compound 100 µM) [%] | IC50 (human erythrocyte AChE) [µM] | also measured
1 | COc1cc2c(cc1OC)C(=O)C(CC1CCN(Cc3ccccc3)CC1)C2 (stereo not shown) [Donepezil, reference compound] | n.а. |  |  |  |  |  |  |  | inhibition at 100 µM (β‐amyloid (1–42) (Aβ42)): 90.7 ± 7.1%
2 | O=[N+]([O-])c1ccc(OP(=O)(O)Oc2ccc([N+](=O)[O-])cc2)cc1 [BNPP, Bis‐4‐nitrophenyl phosphate, reference compound] |  | n.а. |  |  |  |  |  |  | BChE inhibition, % (equine serum BChE; 20 µM): n.а.; Inhibition of Aβ42 self‐aggregation, % (β‐amyloid (1–42) (Aβ42); Aβ42 50 µM, compound 100 µM): n.а.; AChE inhibition, % (human erythrocyte AChE; 20 µM): n.а.
3 | CC[N+](C)(CC)CCC[n+]1c(-c2ccccc2)c2cc(N)ccc2c2ccc(N)cc21.[I-].[I-] [Propidium iodide, reference compound] |  |  |  |  |  |  |  |  | Inhibition of Aβ42 self‐aggregation, % (β‐amyloid (1–42) (Aβ42); Aβ42 50 µM, compound 100 µM): 90.7 ± 7.1%
4 | O=C(NCCCCNc1c2c(nc3c1CCC3)CCCC2)c1ccccc1O [7a, N‐{4‐[(2,3,5,6,7,8‐Hexahydro‐1H‐cyclopenta[b]quinolin‐9‐yl)amino]butyl}−2‐hydroxybenzamide] | 5.0 ± 0.1% | 10.8 ± 0.8% | 6.0 | 0.254 ± 0.023 | 17.6 ± 0.8 | 0.97 ± 0.04 | 41.3 ± 3.3 | 1.52 ± 0.14 | IC50 [2]: 38.4 ± 3.6 µM; IC50 [3]: 74.7 ± 3.4 µM; IC50 [5]: 49.6 ± 3.7 µM
5 | Oc1ccccc1C=NCCCCCCNc1c2c(nc3c1CCC3)CCCC2 [9b, 2‐[({6‐[(2,3,5,6,7,8‐Hexahydro‐1H‐cyclopenta[b]quinolin‐9‐yl)amino]hexyl}imino)methyl]phenol] |  |  |  |  |  |  |  |  | αK i (noncompetitive inhibition constant), eqBChE (eqBChE): 89.0 ± 7.1 nM; Ki (eqBChE): 0.0501 ± 0.0048 µM; αK i (noncompetitive inhibition constant), AChE (AChE): 4.98 ± 0.33 µM; Ki (AChE): 1.76 ± 0.12 µM
6 | Oc1ccccc1C=NCCCCNc1c2c(nc3c1CCC3)CCCC2 [9a, 2‐[({4‐[(2,3,5,6,7,8‐Hexahydro‐1H‐cyclopenta[b]quinolin‐9‐yl)amino]butyl}imino)methyl]phenol] | 10.5 ± 0.9% | 12.5 ± 1.1% | 5.2 | 0.642 ± 0.007 | 26.6 ± 1.1 | 0.65 ± 0.03 | 20.1 ± 1.4 | 3.31 ± 0.02 | IC50 [2]: 38.1 ± 2.1 µM; IC50 [3]: > 100 µM; ABTS^•+‐scavenging activity, TEAC ([4]; listed as 9a a): 0.65; IC50 [5]: 73.2 ± 0.9 µM
7 | Oc1ccccc1C=NCCCCCCCCNc1c2c(nc3c1CCC3)CCCC2 [9c, 2‐[({8‐[(2,3,5,6,7,8‐Hexahydro‐1H‐cyclopenta[b]quinolin‐9‐yl)amino]octyl}imino)methyl]phenol] | 25.8 ± 0.7% | 11.6 ± 0.9% | 56.8 | 0.025 ± 0.001 | 29.6 ± 1.2 | 0.63 ± 0.02 | 71.7 ± 5.1 | 1.42 ± 0.14 | IC50 [2]: 22.2 ± 2.2 µM; IC50 [3]: 95.9 ± 5.4 µM; IC50 [5]: 63.5 ± 4.4 µM
8 | CCCCCCNc1c2c(nc3c1CCC3)CCCC2 [compound 11, N‐hexyl‐2,3,5,6,7,8‐hexahydro‐1H‐cyclopenta[b]quinolin‐9‐amine] | 5.6 ± 0.6% |  | 16.4 | 0.262 ± 0.008 |  |  |  | 4.3 ± 0.32 | 
9 | O=C(O)c1ccccc1O [Salicylic acid, reference compound] | 8.9 ± 0.6% |  |  |  |  | did not show activity |  |  | 
10 | O=c1c(O)c(-c2cc(O)c(O)c(O)c2)oc2cc(O)cc(O)c12 [Myricetin, reference compound] |  |  |  |  |  |  | 79.4 ± 6.3 |  | 
11 | Oc1ccccc1CNCCCCCCNc1c2c(nc3c1CCC3)CCCC2 [10b, 2‐[({6‐[(2,3,5,6,7,8‐Hexahydro‐1H‐cyclopenta[b]quinolin‐9‐yl)amino]hexyl}amino)methyl]phenol] |  |  |  | 0.0294 ± 0.0006 |  |  | 79.2 ± 5.5 | 1.19 ± 0.05 | Type of BChE inhibition (eqBChE; Lineweaver–Burk analysis): mixed type of inhibition; αK i (noncompetitive inhibition constant), eqBChE (eqBChE): 45.4 ± 4.1 nM; Ki (eqBChE): 0.021 ± 0.0006 µM; Type of AChE inhibition (AChE; Lineweaver–Burk analysis): mixed type of inhibition; αK i (noncompetitive inhibition constant), AChE (AChE): 1.50 ± 0.03 µM; Ki (AChE): 0.656 ± 0.011 µM
12 | CCCCCCNCc1ccccc1O [compound 13, 2‐[(hexylamino)methyl]phenol] | 14.8 ± 0.5% |  |  |  | 10.7 ± 0.4 | 1.52 ± 0.07 |  |  | inhibition at 20 µM (equine serum BChE): 26.9 ± 0.5%; inhibition at 20 µM (human erythrocyte AChE): 14 ± 0.6%
13 | O=C(NCCCCCCNc1c2c(nc3c1CCC3)CCCC2)c1ccccc1O [7b, N‐{6‐[(2,3,5,6,7,8‐Hexahydro‐1H‐cyclopenta[b]quinolin‐9‐yl)amino]hexyl}−2‐hydroxybenzamide] | 12.3 ± 1.2% | 11.6 ± 0.9% | 193 | 0.022 ± 0.001 | 17.6 ± 0.7 | 0.98 ± 0.04 | 53.4 ± 4.2 | 4.24 ± 0.08 | αK i (noncompetitive inhibition constant), eqBChE (eqBChE): 19.2 ± 0.9 nM; Ki (eqBChE): 0.0142 ± 0.0011 µM; αK i (noncompetitive inhibition constant), AChE (AChE): 6.25 ± 0.44 µM; Ki (AChE): 2.6 ± 0.19 µM
14 | Cc1c(C)c2c(c(C)c1O)CCC(C)(C(=O)O)O2 (stereo not shown) [Trolox, 6-hydroxy-2,5,7,8-tetramethychroman-2-carboxylic acid, reference compound] |  |  |  |  | 19.7 ± 1.4 | 1.0 |  |  | 
15 | CCCCCCN=Cc1ccccc1O [compound 12, 2‐[(hexylimino)methyl]phenol] | 1.9 ± 0.1% |  |  |  | 93.3 ± 4.1 | 0.15 ± 0.008 |  |  | inhibition at 20 µM (equine serum BChE): 10.6 ± 0.1%; AChE inhibition, % (human erythrocyte AChE; % inhibition at 20 μM, n.a. = not active): n.а.
